Assay [1] addresses T1, SAPK4 (Homo sapiens, UniProt O15264).
T1 sequence (O15264 1-365): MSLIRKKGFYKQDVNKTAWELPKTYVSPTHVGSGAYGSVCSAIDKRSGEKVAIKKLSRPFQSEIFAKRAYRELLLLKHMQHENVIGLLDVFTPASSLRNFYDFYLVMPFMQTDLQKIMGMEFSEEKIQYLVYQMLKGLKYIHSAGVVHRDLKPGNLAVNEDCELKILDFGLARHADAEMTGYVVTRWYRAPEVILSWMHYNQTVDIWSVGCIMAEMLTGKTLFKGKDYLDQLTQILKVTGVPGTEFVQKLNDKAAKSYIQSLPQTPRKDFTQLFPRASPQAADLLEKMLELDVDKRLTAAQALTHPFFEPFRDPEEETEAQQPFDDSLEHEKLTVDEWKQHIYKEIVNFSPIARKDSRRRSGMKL
In words: Inhibition of SAPK4, MBP phosphorylation (FIG. 9). On the set-up: made in house; host or cells: E. coli BL21(DE3). The assay is classed as biochemical. The procedure: SAPK4 is assayed routinely by the phosphorylation of MBP. […] After washing and drying the papers (Alessi et al, 1995 Meth. Enzymol. 255, 279-290) ^32P radioactivity incorporated into MBP is measured.

Assay [2] concerns MAPKAP-K3. The note with it: every mammalian cell so far examined; cited from earlier work.
Assay [3] addresses T2, SAPK3 (Rattus norvegicus, UniProt Q63538).
T2 construct: expressed in transfected cells; host or cells: human KB and 293 cells (vector pSG5)
T2 sequence (Q63538 1-367): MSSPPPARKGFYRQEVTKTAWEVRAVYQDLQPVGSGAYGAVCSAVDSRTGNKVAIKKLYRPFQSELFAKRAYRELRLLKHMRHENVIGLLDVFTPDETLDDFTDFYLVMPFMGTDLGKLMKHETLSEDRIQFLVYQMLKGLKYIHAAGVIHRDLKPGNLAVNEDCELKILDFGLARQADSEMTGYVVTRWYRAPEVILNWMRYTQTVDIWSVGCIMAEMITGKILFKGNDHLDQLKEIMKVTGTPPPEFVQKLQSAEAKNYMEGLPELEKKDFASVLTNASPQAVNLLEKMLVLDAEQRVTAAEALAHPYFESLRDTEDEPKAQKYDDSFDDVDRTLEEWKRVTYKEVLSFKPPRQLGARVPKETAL
In words: Activation of transfected myc epitope-tagged SAPK3 in KB and 293 cells, immunoprecipitation and MBP assay. The assay is classed as cell-based, human. The procedure:
FIG. 11. SAPK3 is activated by cytokines and cellular stresses in KB and 293 cells. KB cells (A) or 293 cells (B) were transiently transfected with a DNA construct expressing a myc epitope-tagged SAPK3. Cells in DMEM were stimulated for 15 min with 0.5 M sorbitol (an osmotic shock), 20 ng/ml IL-1α, 100 ng/ml TNFa, 0.5 mM sodium arsenite (a chemical stress), 100 ng/ml of EGF or 300 ng/ml TPA, or for 30 min with […] anisomycin or 10 min with 100 ng/ml IGF-1. UV-C irradiation of cells was carried out at 60 J/m2 (KB cells) or 200 J/m2 (293 cells) and the cells then left for a further 30 min at 37° C. before lysis. The myc epitope-tagged SAPK3 was immunoprecipitated from cell lysates using the 9E10 monoclonal antibody and assayed with MBP as substrate. […] After UV-C irradiation, SAPK3 activity in the extracts was 0.18 U/mg (KB cells) and 0.1 U/mg (293 cells).
Cell culture and transient transfections. 293, KB and COS-7 cells were cultured in Dulbecco's modified Eagles' Medium (DMEM) supplemented with 10% foetal calf serum, at 37° C., in an atmosphere of 5% CO2. Transfections of 293 cells were carried out using the calcium-phosphate method. […]

Turning to `C[S+]([O-])c1ccc(-c2nc(-c3ccncc3)c(-c3ccc(F)cc3)[nH]2)cc1` (stereo not shown) [SB 203580], the “Inhibition of SAPK4” value in assay [1] (bacterially expressed SAPK4 activated by SKK3 in vitro) is on record as “not inhibited”. The “Inhibition of dephosphorylated form of SAPK4” value in assay [1] (dephosphorylated form, <0.1% of the activity of the phosphorylated form, data not shown) is “failed to inhibit”. Besides, in assay [2], the “Suppression of stress- and cytokine-induced activation of MAPKAP-K3” value is reported as 80-95%. In addition, the “Prevention of activation of transfected SAPK3 by osmotic shock” value in assay [3] is “did not prevent”.

(Values after US6617117B1, “MAP kinases: polypeptides, polynucleotides and uses thereof” (Medical Research Council, priority 1996, dated 2003).)
